Experimental data reported in ChEMBL document CHEMBL1800008, “Design, synthesis and reactivity of C2-symmetric azobenzene-based amino acid-bis(propargyl sulfones)” (Bioorg Med Chem Lett, 2010).
Calls of active or inactive are those of the source. No cut-off for these calls is given here.

How the values were obtained:
Assay type in all cases: nucleic-acid assay
Nucleic Acid [1] = assay: Induction of Escherichia coli supercoiled pBR322 DNA cleavage at 0.02 mM after 48 hrs by gel electrophoresis analysis
Nucleic Acid [2] = assay: Binding affinity to calf thymus DNA by absorption titration analysis; conditions: Bos taurus
Nucleic Acid [3] = assay: Induction of Escherichia coli supercoiled pBR322 DNA cleavage at 0.02 mM after 48 hrs by densitometric analysis

## O=S(=O)(CC#CCOc1ccccc1/N=N/c1ccccc1OCC#CCS(=O)(=O)c1ccccc1)c1ccccc1
Nucleic Acid [1]
  Activity: 25%

## O=C(COc1ccccc1/N=N/c1ccccc1OCC(=O)N[C@@H](Cc1ccccc1)C(=O)OCC#CCS(=O)(=O)c1ccccc1)N[C@@H](Cc1ccccc1)C(=O)OCC#CCS(=O)(=O)c1ccccc1
Nucleic Acid [2]
  K: 9 ×10⁴ /M
Nucleic Acid [1]
  Activity: 10%
Nucleic Acid [3]
  Activity: Active

## CC(C)[C@H](NC(=O)COc1ccccc1/N=N/c1ccccc1OCC(=O)N[C@H](C(=O)OCC#CCS(=O)(=O)c1ccccc1)C(C)C)C(=O)OCC#CCS(=O)(=O)c1ccccc1
Nucleic Acid [2]
  K: 11 ×10⁴ /M
Nucleic Acid [1]
  Activity: 20%
Nucleic Acid [3]
  Activity: Active
